Reference: patent US20050054587A1, “Novel therapeutic indication of azithromycin for treatment of non-infective inflamatory diseases” (priority 2001, published 2005)

Legend:
Type in all cases: in vivo, human
[1] = system: myeloperoxidase (MPO); experiment: Myeloperoxidase density on digital image of blood smear, healthy volunteer trial; details: healthy volunteers, azithromycin 3×500 mg, baseline 105 ± 13
Procedure: (§1) A trial on healthy volunteers was conducted and the influence of azithromycin given in a dosage of 3×500 mg on selected inflammation-relevant parameters was followed up.
(§2) Each subject received two standard 250 mg capsules of azithromycin (Sumamed®, PLIVA Zagreb) on three consecutive days. Immediately before the treatment and 2 h and 30 min, 24 h and 28 days after the third and last dose of azithromycin blood was collected from the cubital vein into EDTA-containing tubes. Aliquots were taken for cell counting, smear preparation, polymorphonuclear cell and serum isolation.
(§3) The activity of MPO was assessed from the intensity of staining of neutrophils in blood smears and in cell lysates by ELISA. After fixation in ethanol-formaldehyde, smears were incubated in a substrate solution containing hydrogen peroxide and benzidine (SIGMA). After incubation, smears were counterstained with Giemsa solution. MPO value positivity_of 100 granulocytes was evaluated and scored from 0 to 4+ on the basis of the intensity of the precipitated dye in cytoplasm. Therefore, the value of the score could be from 0 to 400. Normal values of score range (290-390) were taken from this study before azithromycin administration. MPO activity was also evaluated on the digital image of smear taken with a digital camera under the high magnification (×1000) of light microscope. MPO activities in blood smear neutrophils decreased from 2 h and 30 min to 24 h after the last azithromycin dose and returned to baseline after 28 days (Table 1). The change in neutrophil enzyme protein followed the same pattern as that in intracellular enzyme activity, decreasing from 2 h and 30 min to 24 h after the last dose of azithromycin and returning to baseline after 28 days. Both methodological approaches of MPO determination confirmed each other. Degranulation presented with lower MPO neutrophil density determined_with cytochemistry was associated with lower MPO ELISA concentrations in neutrophil lysates.

[2] = system: myeloperoxidase (MPO); experiment: MPO enzyme protein by ELISA in neutrophil lysates; details: healthy volunteers, azithromycin 3×500 mg, baseline 54.22 ± 12.61
Procedure: as §1, §2
as §3, with “Both methodological approaches of MPO determination confirmed each other.” left out
Proteins in PMN samples were determined according to the method of Bradford (Anal. Biochem. (1976) 72: 248-254) using bovine serum albumin as a standard.

[3] = system: β-glucuronidase; experiment: β-glucuronidase activity in neutrophil (PMN) lysates, fluorimetric; details: healthy volunteers; for β-glucuronidase (PMN): azithromycin 3×500 mg, baseline 4.12 ± 2.7
Procedure: as §1, §2
(§4) Glycosidases are enzymes that catalyse hydrolysis of glycosidic bonds of oligosacharides and other glycosides. They are specific to the glycosidic part of substrate molecule. N-acetyl-β-D-glucosaminidase (NAGA) and β-glucuronidase are such enzymes. They are lysosomal enzymes, both located in azurophilic (primary; peroxidase-positive) granules of neutrophils. Since degranulation of neutrophils is present during inflammation, many authors choose these enzymes as markers of degranulation and for estimation of neutrophil reactivity. The catalytic concentration of both enzymes in serum and in neutrophil lysates was determined using the fluorimetric method described by O'Brien et al. (New Engl. J. Med. (1970) 283: 15-20) for NAGA and Glaser & Sly (J. Lab. Clin. Med. (1973) 82: 969) for β-glucuronidase.

[4] = system: N-acetyl-β-D-glucosaminidase (NAGA); experiment: NAGA activity in serum, fluorimetric; details: healthy volunteers; for NAGA (serum): azithromycin 3×500 mg, baseline 9.16 ± 1.6
Procedure: as §1, §2, §4

[5] = system: IL-1; experiment: Serum IL-1 concentration, ELISA; details: healthy volunteers, azithromycin 3×500 mg, baseline 0.291 ± 0.11
Procedure: as §1, §2
(§5) Cytokine and chemokine concentrations were determined using ELISA kits. […] Rapid and pronounced decreases in the plasma concentrations of the neutrophil-stimulating chemokine, IL-8, and GR0-α were observed 2 h and 30 min and 24 h after the last dose of azithromycin (Table 1. The concentration of IL-8 returned essentially to baseline after 28 days, while that of GRO-[…] was decreased at this time.

[6] = system: IL-8; experiment: Serum IL-8 concentration, ELISA; details: healthy volunteers, azithromycin 3×500 mg, baseline 29.47 ± 15.44
Procedure: as §1, §2, §5

[7] = system: GRO-α; experiment: Serum GRO-α concentration, ELISA; details: healthy volunteers, azithromycin 3×500 mg, baseline 124.1 ± 33.02
Procedure: as §1, §2, §5

[8] = system: sVCAM; experiment: Serum sVCAM concentration, ELISA; details: healthy volunteers, azithromycin 3×500 mg, baseline 13.59 ± 2.90
Procedure: as §1, §2
For quantitative determination of serum concentration of human sVCAM, an ELISA kit was used (R&D systems, UK)

[9] = system: stimulated neutrophils; experiment: fMLP-stimulated neutrophil oxidative burst, luminol chemiluminescence; details: healthy volunteers, azithromycin 3×500 mg, baseline 29335 ± 1957
Procedure: as §1, §2
The generation of reactive oxygen species by activated cells is frequently determined by the measurement of chemiluminescence (CL). The radical species formed react with a photon-producing chemical (e.g. Luminol) and the resulting light emission is measured with a photocell. Chemiluminescence is detectable as a result of the stimulation (e.g. fMLP) of leucocytes and is a measure of their oxidative cytotoxic activity (Allen et al., Biochem. Biophys. Res. Commun. (1972), 47: 679).
The results of the study presented in Table 1 show, that azithromycin inhibits chemiluminescence generated from stimulated neutrophils isolated from the blood of humans treated with azithromycin.

[10] = system: neutrophils; experiment: fMLP-stimulated neutrophil oxidative burst, cytochrome c assay; details: healthy volunteers, azithromycin 3×500 mg, baseline 0.020 ± 0,014, absorbances 550 nm and 540 nm
Procedure: as §1, §2
Neutrophils were incubated with cytochrome c and stimulated with fMLP (Cohen and Chovaniec, 1978, J. Clin. Invest. 61: 1081-1087). Absorbances at 550 nm and 540 nm were recorded and the results were expressed as delta A.

## CC[C@H]1OC(=O)[C@H](C)[C@@H](O[C@H]2C[C@@](C)(OC)[C@@H](O)[C@H](C)O2)[C@H](C)[C@@H](O[C@@H]2O[C@H](C)C[C@H](N(C)C)[C@H]2O)[C@](C)(O)C[C@@H](C)CN(C)[C@H](C)[C@@H](O)[C@]1(C)O [azithromycin, 9-deoxo-9-dihydro-9a-methyl-9a-aza-9a-homoerythromycin A]
[1]; 2 h and 30 min after last dose
  myeloperoxidase (density): 130 ± 16
[1]; 24 hours after last dose
  myeloperoxidase (density): 131 ± 17
[1]; 28 days after last dose
  myeloperoxidase (density): 115 ± 19
[2]; 2 h and 30 min after last dose
  myeloperoxidase (PMN): 70.85 ± 19.91 μg/mg protein
[2]; 24 hours after last dose
  myeloperoxidase (PMN): 26.74 ± 2.51 μg/mg protein
[2]; 28 days after last dose
  myeloperoxidase (PMN): 70.01 ± 17.62 μg/mg protein
[3]; 3×500 mg, 24 hours
  decrease of activities of β-glucuronidase in PMN compared to initial values: about 50%
[3]; 3×500 mg, 28 days later
  β-glucuronidase activity in PMN higher compared to the initial values: about 300%
[3]; 3×500 mg, after 2 h and 30 min
  decrease of activities of β-glucuronidase in PMN compared to initial values: about 20%
[3]; 2 h and 30 min after last dose
  β-glucuronidase (PMN): 3.21 ± 2.3 nmol × 10^−6 cells × min^−1
[3]; 24 hours after last dose
  β-glucuronidase (PMN): 1.58 ± 0.4 nmol × 10^−6 cells × min^−1
[3]; 28 days after last dose
  β-glucuronidase (PMN): 15.37 ± 11.4 nmol × 10^−6 cells × min^−1
[4]; 3×500 mg, 2 h and 30 min after the last dose
  increase of activity of NAGA in serum vs initial values: about 30%
[4]; 3×500 mg, 24 hours after the last dose
  activity of NAGA in serum higher than the initial values: approximately 50%
[4]; 3×500 mg, 28 days after the last dose
  serum NAGA values higher than initial values: 70%
[4]; 2 h and 30 min after last dose
  NAGA (serum): 11.52 ± 2.2 µmol/L/min
[4]; 24 hours after last dose
  NAGA (serum): 13.7 ± 1.5 µmol/L/min
[4]; 28 days after last dose
  NAGA (serum): 14.87 ± 1.9 µmol/L/min
[5]; 2 h and 30 min after last dose
  IL-1 (serum): 0.533 ± 0.15 pg/mL
[5]; 24 hours after last dose
  IL-1 (serum): 1.07 ± 0.19 pg/mL
[5]; 28 days after last dose
  IL-1 (serum): 0.29 ± 0.20 pg/mL
[6]; 2 h and 30 min after last dose
  IL-8 (serum): 10.61 ± 3.81 pg/mL
[6]; 24 hours after last dose
  IL-8 (serum): 14.60 ± 10.75 pg/mL
[6]; 28 days after last dose
  IL-8 (serum): 23.03 ± 19.72 pg/mL
[7]; 2 h and 30 min after last dose
  GRO-α (serum): 109.6 ± 30.35 pg/mL
[7]; 24 hours after last dose
  GRO-α (serum): 107.9 ± 27.83 pg/mL
[7]; 28 days after last dose
  GRO-α (serum): 90.4 ± 22.32 pg/mL
[8]; 2 h and 30 min after last dose
  sV-CAM (serum): 12.21 ± 4.12 ng/mL
[8]; 24 hours after last dose
  sV-CAM (serum): 10.29 ± 2.12 ng/mL
[8]; 28 days after last dose
  sV-CAM (serum): 10.74 ± 2.05 ng/mL
[9]; 2 h and 30 min after last dose
  OXIDATIVE BURST (PMN) fMLP-luminol: 14774 ± 1175 A.U.
[9]; 24 hours after last dose
  OXIDATIVE BURST (PMN) fMLP-luminol: 5053 ± 3804 A.U.
[9]; 28 days after last dose
  OXIDATIVE BURST (PMN) fMLP-luminol: 9879 ± 13880 A.U.
[10]; 2 h and 30 min after last dose
  OXIDATIVE BURST (PMN) fMLP-cytochrom c: 0,007 ± 0.015 ΔA
[10]; 24 hours after last dose
  OXIDATIVE BURST (PMN) fMLP-cytochrom c: −0,018 ± 0.010 ΔA
[10]; 28 days after last dose
  OXIDATIVE BURST (PMN) fMLP-cytochrom c: −0,0011 ± 0,0010 ΔA
